The results in this text go back to US10676499B2, “3′ end caps, 5′ end caps and combinations thereof for therapeutic RNA” (NOVARTIS AG, priority 2014, dated 2020).

A value given as a limit tells only on which side of the number the result lay.

The target of one experiment is eIF4E (Homo sapiens (Human), UniProt P06730). In words: TR-FRET assay for competitive binding of cap analogs to eIF4E. The note with it: N7-alkylated GDP derivatives; single measurement unless noted (a = average over 2 measurements); read-out: AC50/μM. The source says: His tagged eIF4E protein was purchased from Fitzgerald Industries International (80R-125; Acton, Mass.) and tRNA was purchased from SIGMA (R5636; St. Louis, Mo.). A biotinylated 20 nucleotide RNA oligo (5′Phos/rGrGrA rCrCrC rCrUrC rUrCrC rCrUrC rCrCrC rCrC biotin-3′) was purchased from Integrated DNA Technologies (Coralville, Iowa). Europium labelled anti his antibody was purchased from Perkin Elmer (ADOI 10; Waltham, Mass.) and streptavidin conjugated alexa fluor 647 was purchased from Life Technologies (S32357; Grand Island, N.Y.).
Chain of eIF4E (P06730 whole entry): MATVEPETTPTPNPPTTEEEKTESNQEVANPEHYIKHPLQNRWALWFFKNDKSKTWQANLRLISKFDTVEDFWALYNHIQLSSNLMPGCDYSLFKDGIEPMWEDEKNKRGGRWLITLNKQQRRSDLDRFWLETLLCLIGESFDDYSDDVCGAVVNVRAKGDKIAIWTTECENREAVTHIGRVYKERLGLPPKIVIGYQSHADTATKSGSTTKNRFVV
The TR-FRET assay was performed in an assay buffer of PBS (pH 7.4), 0.02% Tween, and 0.1% BSA using four separate addition steps. Initially, 5 μl of His-eIF4E (10 nM) and tRNA (0.1 mg/ml) were added into a black walled 384 well small volume plate. Next, 1 al/well of freshly diluted compound was added using the Beckman Coulter Biomek FX liquid dispenser with a final DMSO concentration of 1%. The compound and eIF4E were allowed to bind for 15 minutes at room temperature. The third addition consisted of adding 4 μl of chemically capped 7mGDP imidazole mRNA-biotin (10 nM) into every well, with the exception of one column containing only buffer to use as a background control. The binding reaction was incubated for one hour at room temperature. Finally, 5 al of the europium-labeled anti-His antibody (10 nM) and streptavidin conjugated alexa fluor 647 (10 nM) TR-FRET detection reagents were added to each well and allowed to incubate at room temperature protected from light for 1 h. The plates were read on the Envision plate reader (Perkin-Elmer) to measure signals from both the Alexa fluor (665 nm) and the europium (615 nm). A ratio of the alexa fluor and europium fluorescence as a function of cap analog concentration was calculated for data analysis and data were fit to a standard EC50 inhibition curve in Graph Pad.
Consider `Nc1nc([O-])c2c(n1)n([C@@H]1O[C@H](COP(=O)(O)OP(=O)(O)O)[C@@H](O)[C@H]1O)c[n+]2C(c1ccccc1)c1ccccc1` [Example 16], for which the AC50 amounted to 47.1 µM.

The experiment is the same for the next values; noted with them: N^7-alkylated GMP derivatives; competition with capped 7mGDP mRNA-biotin; single measurement unless footnoted as average; read-out: AC50.
For the compound `CCc1nc2ccccc2s1` [Example 68], the AC50 came to 52.9 µM.

For the compound `CCc1cccc2c1cnn2C` [Example 72], the AC50 was more than 100 µM.

In the case of `CCc1ncc(-c2ccc(F)cc2)o1` [Example 64], the AC50 is more than 100 µM.

As for `CCc1ccc(-c2ccccc2)cc1` [Example 65], the AC50 is 29 µM.

In the case of `CCc1ccc2nonc2c1` [Example 70], the AC50 came out at 23.7 µM.

Regarding `CCc1ccc(-c2ccccc2OC)cc1` [Example 62], the AC50 is more than 100 µM.

Consider `CCc1ccc(-c2ccc(C(C)=O)cc2)cc1` [Example 60], for which the AC50 was more than 100 µM.

On to `CCc1ccc2c(cnn2C)c1` [Example 74], for which the AC50 is more than 100 µM.

On to `CCc1cc2ccccc2s1` [Example 69], for which the AC50 was determined as 63.2 µM.

Turning to `CCc1ccc(-c2noc(C)n2)cc1` [Example 63], the AC50 is more than 100 µM.

In the case of `CCc1ccc(-c2ccsc2)cc1` [Example 67], the AC50 was determined as 2.69 µM.

With `CCc1ccc(-c2cccs2)nc1` [Example 66], the AC50 is 5.91 µM.

As to `CCc1nc2ccccc2n1C` [Example 71], the AC50 was more than 100 µM.

With `CCc1ccc2cnn(C)c2c1` [Example 73], the AC50 is more than 100 µM.

For the compound `CCc1ccc(-c2nc(C)no2)cc1` [Example 61], the AC50 came to 16.7 µM.
